One assay has as its system NIH/3T3 BTK WT cells. The assay is described as follows: Phosphor-BTK(Y223) assay, adherent cells. The assay is classed as cell-based. The note with it: Mus musculus, NIH3T3, phosphorylated BTK Y223, NIH/3T3 BTK WT cells; read-out: NIH/3T3 BTK-WT pBTK. In a few lines:
(§1)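 NIH/3T3 cells expressing WT or C481S BTK were pretreated with compound for 0.5 h at 37 °C, then stimulated with 1 mM Na3VO4 (final) for 2 h. Lysates were assayed by HTRF for p-BTK Y223 using the 665/620 nm ratio. IC50 was obtained by nonlinear fit of % inhibition versus 0.5% DMSO control.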

In a further assay the test system is NIH/3T3 BTK C481S cells. The assay is described as follows: Phosphor-BTK(Y223) assay, adherent cells. The assay is classed as cell-based. The conditions noted are these: Mus musculus, NIH3T3, phosphorylated BTK Y223, NIH/3T3 BTK C481S cells; read-out: NIH/3T3 BTK-C481S pBTK. In a few lines:
as §1

In the next assay the target is T1, BTK C481S (Homo sapiens, UniProt Q06187, C481S).
T1 construct: purchased Carna 08-547
T1 sequence (Q06187 whole entry C481S): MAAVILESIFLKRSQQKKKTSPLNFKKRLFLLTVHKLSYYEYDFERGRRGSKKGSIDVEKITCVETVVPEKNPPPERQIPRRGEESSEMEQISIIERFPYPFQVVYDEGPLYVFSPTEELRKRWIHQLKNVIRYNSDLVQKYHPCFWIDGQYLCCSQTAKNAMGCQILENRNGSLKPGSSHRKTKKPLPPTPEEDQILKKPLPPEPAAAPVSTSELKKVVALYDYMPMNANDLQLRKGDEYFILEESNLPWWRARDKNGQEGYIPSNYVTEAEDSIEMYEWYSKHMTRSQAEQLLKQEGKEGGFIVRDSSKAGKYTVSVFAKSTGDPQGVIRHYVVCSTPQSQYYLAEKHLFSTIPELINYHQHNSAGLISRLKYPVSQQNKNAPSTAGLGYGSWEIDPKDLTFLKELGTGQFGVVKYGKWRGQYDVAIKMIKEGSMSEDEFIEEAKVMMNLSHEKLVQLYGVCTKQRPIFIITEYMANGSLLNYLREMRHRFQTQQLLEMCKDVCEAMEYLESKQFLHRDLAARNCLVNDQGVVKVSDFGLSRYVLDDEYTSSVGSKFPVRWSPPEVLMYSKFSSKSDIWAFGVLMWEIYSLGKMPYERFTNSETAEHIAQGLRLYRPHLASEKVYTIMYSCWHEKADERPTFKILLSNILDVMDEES
The assay is described as follows: Kinase activity inhibition assay (HTRF TK Kit). The assay is classed as biochemical. An excerpt:
(§2) In this assay, the HTRF TK Kit (Catalog No. 62TK0PEC) provided by Cisbio was used to detect the inhibitory activity of compounds on BTK kinase, BTK T474I kinase and BTK C481 S kinase and the selectivity of compounds relative to EGFR, ITK and TEC kinases.
(§3) Reagents and consumables: BTK kinase (Invitrogen, Catalog No. PV3587), BTK C481S (Carna, Product No. 08-547), BTK T474I(SignalChem Product No. B10-12HH), ITK (Cama, Product No. 08-181), EGFR (Cama, Product No. 08-115), TEC (Carna, Product No. 08-182), HTRF-TK kit (Cisbio, Product No. 62TK0PEC), MgCl2 (Sigma, Product No. M1028), MnCl2 (Sigma, Product No. M1787), DTT (Sigma, Product No. D0632), ATP (Sigma, Product No. A7699-1g), DMSO (Sigma, Product No. D2650), 384-well plate (PE, Product No. 6008280).
(§4) The entire operation steps were carried out on ice, and the total reaction volume was 10µL. A compound (4µL), substrate and ATP (4µL), and kinase (2µL) were added in sequence to a 384-well plate, and the plate was shaken for 30 seconds. The mixture was reacted at room temperature for an appropriate time, and then the detection reagent was added. The resulting mixture was reacted at room temperature for 1 hour, and then the plate was assayed with a microplate reader. The specific steps were as follows: • a) a 1 × kinase buffer solution required for the kinase assay was calculated according to the amount of the test compound, and prepared as needed; • b) 2.5 × working concentration of a compound was prepared, 100-fold gradient concentration solutions of a compound were diluted by 40 × to the desired concentration, respectively, mixed well, and added to each well at 4 µL per well; • c) 5 × working concentration of the substrate and ATP were prepared, mixed in a ratio of 1:1 before being added to the 384-well plate, and added to each well at 4 µL per well; • d) 5 × working concentration of a kinase was prepared, 2 µL of which was added to each well; • e) the plate was shaken on a microplate shaker for 30 seconds, sealed with a sealing membrane, and the mixture was reacted at room temperature for an appropriate time; • f) 4 × working concentration of streptavidin XL-665 and TK antibody-cryptate compound were prepared, mixed in a ratio of 1:1 before being added to the 384-well plate, and added to each well at 10 µL per well; • g) the mixture was reacted at room temperature for 1 hour, and then the plate was read; • h) the wells with only substrate, ATP and 1% DMSO added but no kinase were blank control wells, and the wells with only substrate, ATP, 1% DMSO and kinase were positive control wells.
(§5) Readings: The values of 620 nm (cryptate) and 665 nm (XL665) were read with a BioTek Synerg Neo2 microplate reader, the ratio of 665/620 for each well was calculated, and the data were exported.
(§6) Data analysis: IC50 was calculated using GraphPad Prism 7.0 software.
(§7) The IC50 (half-maximal inhibitory concentration) of the compound was obtained using the following nonlinear fitting formula: Y = Bottom + (Top−Bottom)/(1+10^(∧)((LogIC50−X)*HillSlope)) [formula] • X: Log value of the compound concentration • Y: Inhibition rate (% inhibition) • Top: Maximum response • Bottom: Baseline response • HillSlope: Slope of the curve
(§8) The formula for calculating kinase inhibition rate (inhibition rate %) was: [formula]

A further assay addresses T2, BTK kinase (Homo sapiens, UniProt Q06187).
T2 construct: purchased Invitrogen PV3587
The assay is described as follows: Kinase activity inhibition assay (HTRF TK Kit). The assay is classed as biochemical.
Description: as §2, §3, §4, §5, §6, §7, §8
For orientation: TR-FRET usually uses a lanthanide donor and a delayed reading to cut background.

Another assay has as its target T3, BTK T474I (Homo sapiens, UniProt Q06187, T474I).
T3 construct: purchased SignalChem B10-12HH
The assay is described as follows: Kinase activity inhibition assay (HTRF TK Kit). The assay is classed as biochemical.
Description: as §2, §3, §4, §5, §6, §7, §8

T2 sequence (Q06187 whole entry): as the sequence (Q06187 whole entry C481S) above, with S481C counted along it
T3 sequence (Q06187 whole entry T474I): as the sequence (Q06187 whole entry C481S) above, with T474I, S481C counted along it

As to `COc1ccc(F)cc1C(=O)NCc1ccc(-c2ncc(-c3ccc(OC(F)(F)F)cn3)c3[nH]nc(N)c23)cc1` [Example 41, N-(4-(3-amino-7-(5-(trifluoromethoxy)pyridin-2-yl)-1H-pyrazolo[4,3-c]pyridin-4-yl)benzyl)-5-fluoro-2-methoxybenzamide], the IC50 in the assay with NIH/3T3 BTK WT cells is at most 5 nM; in the assay with NIH/3T3 BTK C481S cells, 5 to 10 nM; at BTK C481S, at most 1 nM; at BTK kinase, 1 to 5 nM; at BTK T474I, 5 to 50 nM.

Regarding `COc1ccc(F)cc1C(=O)NCc1ccc(-c2ncc(-c3ncc(C(F)(F)F)cn3)c3[nH]nc(N)c23)cc1` [Example 42, N-(4-(3-amino-7-(5-(trifluoromethyl)pyrimidin-2-yl)-1H-pyrazolo[4,3-c]pyridin-4-yl)benzyl)-5-fluoro-2-methoxybenzamide], the IC50 was at most 5 nM in the assay with NIH/3T3 BTK WT cells; 10 to 50 nM in the assay with NIH/3T3 BTK C481S cells; 1 to 5 nM on BTK C481S; 1 to 5 nM at BTK kinase; above 500 nM at BTK T474I.

In the case of `COc1ccc(F)cc1C(=O)NCc1ccc(-c2ncc(-c3ccc(C4COC4)cn3)c3[nH]nc(N)c23)cc1` [Example 43, N-(4-(3-amino-7-(5-(oxetan-3-yl)pyridin-2-yl)-1H-pyrazolo[4,3-c]pyridin-4-yl)benzyl)-5-fluoro-2-methoxybenzamide], the IC50 in the assay with NIH/3T3 BTK WT cells was at most 5 nM; with NIH/3T3 BTK C481S cells, at most 5 nM; at BTK C481S, at most 1 nM; at BTK kinase it was at most 1 nM; on BTK T474I, 5 to 50 nM.

Regarding `COc1ccc(F)cc1C(=O)NCc1ccc(-c2ncc(-c3cc4ncccn4n3)c3[nH]nc(N)c23)cc1` [Example 44, N-(4-(3-amino-7-(pyrazolo[1,5-a]pyrimidin-2-yl)-1H-pyrazolo[4,3-c]pyridin-4-yl)benzyl)-5-fluoro-2-methoxybenzamide], the IC50 in the assay on NIH/3T3 BTK WT cells is at most 5 nM; with NIH/3T3 BTK C481S cells, at most 5 nM; at BTK C481S, at most 1 nM; at BTK kinase, at most 1 nM; on BTK T474I, 5 to 50 nM.

As to `CCOC(=O)c1cnc2cc(-c3cnc(-c4ccc(CNC(=O)c5cc(F)ccc5OC)cc4)c4c(N)n[nH]c34)nn2c1` [Example 45, ethyl 2-(3-amino-4-(4-((5-fluoro-2-methoxybenzoylamino)methyl)phenyl)-1H-pyrazolo[4,3-c]pyridin-7-yl)pyrazolo[1,5-a]pyrimidine-6-carboxylate], the IC50 is 10 to 50 nM in the assay with NIH/3T3 BTK WT cells; 10 to 50 nM in the assay with NIH/3T3 BTK C481S cells; 5 to 50 nM on BTK C481S; 5 to 50 nM on BTK kinase; above 500 nM at BTK T474I.

Take `COc1ccc(F)cc1C(=O)NCc1ccc(-c2ncc(-c3ccn4nccc4n3)c3[nH]nc(N)c23)cc1` [Example 46, N-(4-(3-amino-7-(pyrazolo[1,5-a]pyrimidin-5-yl)-1H-pyrazolo[4,3-c]pyridin-4-yl)benzyl)-5-fluoro-2-methoxybenzamide]: the IC50 with NIH/3T3 BTK WT cells was at most 5 nM; with NIH/3T3 BTK C481S cells, 5 to 10 nM; at BTK C481S, 1 to 5 nM; on BTK kinase it was 1 to 5 nM; at BTK T474I, 50 to 500 nM.

For `COc1ccc(F)cc1C(=O)NCc1ccc(-c2ncc(-c3ccc4cn[nH]c4n3)c3[nH]nc(N)c23)cc1` [Example 47, N-(4-(3-amino-7-(1H-pyrazolo[3,4-b]pyridin-6-yl)-1H-pyrazolo[4,3-c]pyridin-4-yl)benzyl)-5-fluoro-2-methoxybenzamide], the IC50 with NIH/3T3 BTK WT cells lay within 5 to 10 nM; in the assay on NIH/3T3 BTK C481S cells, 10 to 50 nM; at BTK C481S, 1 to 5 nM; on BTK kinase it was 1 to 5 nM; on BTK T474I, 50 to 500 nM.

For `COc1ccc(F)cc1C(=O)NCc1ccc(-c2ncc(-c3ccc(C(F)F)cn3)c3[nH]nc(N)c23)cc1` [Example 48, N-(4-(3-amino-7-(5-(difluoromethyl)pyridin-2-yl)-1H-pyrazolo[4,3-c]pyridin-4-yl)benzyl)-5-fluoro-2-methoxybenzamide], the IC50 with NIH/3T3 BTK WT cells was at most 5 nM; with NIH/3T3 BTK C481S cells, at most 5 nM; at BTK C481S it was 1 to 5 nM; on BTK kinase, 1 to 5 nM; at BTK T474I, 5 to 50 nM.

On to `COc1ccc(F)cc1C(=O)NCc1ccc(-c2ncc(-c3cn4ccnc4cn3)c3[nH]nc(N)c23)cc1` [Example 50, N-(4-(3-amino-7-(imidazo[1,2-a]pyrazin-6-yl)-1H-pyrazolo[4,3-c]pyridin-4-yl)benzyl)-5-fluoro-2-methoxybenzamide], for which the IC50 with NIH/3T3 BTK WT cells was at most 5 nM; in the assay on NIH/3T3 BTK C481S cells, 5 to 10 nM; on BTK C481S it was 1 to 5 nM; at BTK kinase it was 1 to 5 nM; at BTK T474I, 50 to 500 nM.

With `COc1ccc(F)cc1C(=O)NCc1ccc(-c2ncc(-c3ccc4nccn4n3)c3[nH]nc(N)c23)cc1` [Example 51, N-(4-(3-amino-7-(imidazo[1,2-b]pyridazin-6-yl)-1H-pyrazolo[4,3-c]pyridin-4-yl)benzyl)-5-fluoro-2-methoxybenzamide], the IC50 is at most 5 nM with NIH/3T3 BTK WT cells; 5 to 10 nM in the assay on NIH/3T3 BTK C481S cells; at most 1 nM at BTK C481S; 1 to 5 nM at BTK kinase; 50 to 500 nM on BTK T474I.

Regarding `COc1ccc(F)cc1C(=O)NCc1ccc(-c2ncc(-c3ccc(C(=O)N4CCOCC4)cn3)c3[nH]nc(N)c23)cc1` [Example 52, N-(4-(3-amino-7-(5-(morpholine-4-carbonyl)pyridin-2-yl)-1H-pyrazolo[4,3-c]pyridin-4-yl)benzyl)-5-fluoro-2-methoxybenzamide], the IC50 was at most 5 nM in the assay with NIH/3T3 BTK WT cells; at most 5 nM in the assay on NIH/3T3 BTK C481S cells; at most 1 nM at BTK C481S; at most 1 nM at BTK kinase; 5 to 50 nM at BTK T474I.

Turning to `COc1ccc(F)cc1C(=O)NCc1ccc(-c2ncc(-c3ccc(C(=O)N4C[C@H](C)O[C@@H](C)C4)cn3)c3[nH]nc(N)c23)cc1` [Example 53, N-(4-(3-amino-7-(5-((2S,6S)-2,6-dimethylmorpholine-4-carbonyl)pyridin-2-yl)-1H-pyrazolo[4,3-c]pyridin-4-yl)benzyl)-5-fluoro-2-methoxybenzamide], the IC50 was at most 5 nM with NIH/3T3 BTK WT cells; at most 5 nM with NIH/3T3 BTK C481S cells; 1 to 5 nM on BTK C481S; 1 to 5 nM at BTK kinase; 50 to 500 nM at BTK T474I.

In the case of `COc1ccc(F)cc1C(=O)NCc1ccc(-c2ncc(-c3ccc(C(=O)N4C[C@@H](C)O[C@H](C)C4)cn3)c3[nH]nc(N)c23)cc1` [Example 54, N-(4-(3-amino-7-(5-((2R,6R)-2,6-dimethylmoroholine-4-carbonyl)pyridin-2-yl)-1H-pyrazolo[4,3-c]pyridin-4-yl)benzyl)-5-fluoro-2-methoxybenzamide], the IC50 in the assay on NIH/3T3 BTK WT cells was at most 5 nM; in the assay with NIH/3T3 BTK C481S cells, at most 5 nM; at BTK C481S, 1 to 5 nM; at BTK kinase, 1 to 5 nM; at BTK T474I, 50 to 500 nM.

Turning to `COc1ccc(F)cc1C(=O)NCc1ccc(-c2ncc(-c3ccc(P(C)(C)=O)cn3)c3[nH]nc(N)c23)cc1` [Example 56, N-(4-(3-amino-7-(5-(dimethylphosphoryl)pyridin-2-yl)-1H-pyrazolo[4,3-c]pyridin-4-yl)benzyl)-5-fluoro-2-methoxybenzamide], the IC50 is above 50 nM in the assay on NIH/3T3 BTK WT cells; above 50 nM in the assay on NIH/3T3 BTK C481S cells; 1 to 5 nM at BTK C481S; 1 to 5 nM at BTK kinase; 5 to 50 nM at BTK T474I.
